Measurements published in patent US20140194321A1 (CELLOMICS, INC., priority 2013, published 2014).
Read-outs that look alike come from different tables or passages of the source.

How the values were obtained:
[1] = tested on: U937 cells; assay: High-content imaging skin sensitizing prediction assay: U937 cells treated 24 h with a range of compound concentrations, CD54 intensity per cell and cell number dose response curves qualified, decision matrix applied; settings: for CD54/Cell Result: qualified dose response curve (increasing/flat/decreasing) of CD54 intensity per cell; for CD54/Cell Result / Cell Number Result: U937 cells, 24 hours compound treatment, range of concentrations; for Cell Number Result: qualified dose response curve (increasing/flat/decreasing) of number of cells; for Outcome: skin sensitivity prediction from decision matrix of FIG. 8 (CD54/cell vs cell number), Toxic* = at concentrations tested
Source text: (§1) In step 160, the data corresponding to the different compound concentrations is normalized. In one embodiment, measurements generated from the vehicle-treated cell image analysis can be used. […] As such, a normalization of the data obtained from the compound-treated cells can be determined by subtracting the baseline response of the vehicle-treated cells from the measurements of the responses of the compound-treated cells. Measured values of the compound-treated cells that are below baseline levels can be notated as lacking a response, and can be ignored in further analysis, if desired.
(§2) This can be done by calculating a mean value for the measured target at each concentration level, taking into account all of the samples corresponding to the particular concentration level.
(§3) For example, mean values for gross markers can be computed for the number of cells using either the number of cell bodies or the number of nuclei detected. For specific markers, mean values can be computed for each of the features (e.g., CD54 (ICAM-1) intensity). […] Other mean values can also be used. In addition, other representative values can also be used for each concentration of the compound, such as a highest measured value, a lowest measured value, or other representative values.
(§4) This can be done by plotting on a graph the average value of the target for each concentration. […] Using the plotted points, a simple curve 170 can be generated, as shown. This simple curve represents the dose response curve.
(§5) In one embodiment, qualifying the dose response curve can be accomplished by categorizing the curve as “increasing,” “decreasing,” or “flat.”
(§6) The predefined range can be determined using a standard deviation value, a percentage of total range, or a percentage of highest value. […] In the experimental results, discussed below, the predefined range was determined using a percentage of the highest value for the curve.
(§7) In step 170, a decision matrix is applied to the qualified dose response of one or more of the measured parameters to predict skin sensitization. The qualified dose response of any of the measured cellular targets can be used. For example, the cellular targets used in the decision matrix can be selected from the gross markers, specific markers and/or the functional response of the cells. Using the selected properties, a decision matrix can be constructed based upon the expected behavior of the cell type in response to the compound used. The dose response curve behavior (e.g., “increasing,” “flat,” or “decreasing”) of the measured cellular properties can then be used to determine the prediction of sensitizing capability of the compound. In some embodiments, the decision matrix can also be used to determine if the compound is toxic.
(§8) To determine a predicted skin sensitivity of a tested compound, one simply finds the matrix location corresponding to both of the qualified dose responses determined for the tested compound, and the entry within that matrix location identifies the predicted skin sensitivity of the compound.
(§9) The compounds for which skin sensitivity is desired can then be introduced to the immune effector cells. For each concentration level of each compound, 100 μl of the 2× concentrated compound solution can be added to the corresponding wells. Similarly, 100 μl of vehicle solution can be added to the vehicle control wells and the 2× solution of the negative and positive controls can be added to the negative and positive control wells, respectively. The plate can then be incubated for 24 hours at 37° C. in 5% CO2.
(§10) After incubation, the plate can be centrifuged for 5 minutes at 125×g. The media can then be aspirated from the wells after which 50 μl of pre-warmed (e.g., to 37° C.) 4% paraformaldehyde can be added to each well.

[2] = tested on: U937 cells
Source text: as §1, §2, §3, §4, §5, §6, §7, §8, §9, §10

Compound | CD54/Cell Result [1] | Cell Number Result [1] | Outcome [1] | Outcome [2]
Nc1ccccc1O [2-aminophenol] | Increase | Increase | Sensitizer | –
N#CCCC(Br)(C#N)CBr (centres unmarked) [2bromo-2bromomethylglutaronitrile] | Decrease | – | Toxic* | –
C=CC(=O)OCCO [2hydroxyethylacrylate] | Increase | Increase | Sensitizer | –
CC(C)=O [Acetone] | Increase | Decrease | Sensitizer | –
O=Cc1ccccc1 [Benzylaldehyde] | Increase | Increase | Sensitizer | –
CN(C)C=O [DMF] | Increase | Increase | – | Sensitizer
C[S+](C)[O-] [DMSO] | Decrease | Increase | – | Non-sensitizer
CCOC(=O)c1ccccc1C(=O)OCC [Diethyl Phthalate] | Decrease | Decrease | Toxic* | –
CCO [Ethanol] | Decrease | Increase | Non-sensitizer | –
CCOc1cc(C=O)ccc1O [Ethyl Vanillin] | Decrease | Decrease | – | Toxic*
CC(C)=CCC/C(C)=C/CO [Geraniol] | Increase | Increase | Sensitizer | –
OCC(O)CO [Glycerol] | Flat | – | Non-sensitizer | –
O=CC=O [Glyoxal] | Increase | Decrease | Sensitizer | –
CC(C)O [Isopropanol] | Decrease | – | Non-sensitizer | –
CC(O)C(=O)O (centres unmarked) [Lactic Acid] | Decrease | Decrease | Toxic* | –
CCCCCCCC(=O)O [Octanoic Acid] | Increase | Increase | Sensitizer | –
NCCNc1ccccc1 [Phenylethylenediamine] | Decrease | Increase | Non-sensitizer | –
CC(O)CO (centres unmarked) [Propylene Glycol] | Decrease | Flat | Non-sensitizer | –
O=C(O)c1ccccc1O [Salicylic Acid] | Decrease | Decrease | Toxic* | –
CCCCCCCCCCCCOS(=O)(=O)[O-].[Na+] [Sodium Lauryl Sulfate] | Increase | Increase | Sensitizer | –
CCCCCCCC/C=C\CCCCCCCC(=O)OCCOCC(OCCO)C1OCC(OCCO)C1OCCO (centres unmarked) [Tween 80] | Decrease | Increase | Non-sensitizer | –
Butanol | Flat | Increase | – | –
